{"source": "patent US20050112573A1", "about": "“Method of detecting toxic substance” (priority 2001, published 2005)", "tested_on": "yeast genes (level of expressed mRNA)", "experiment": "DNA chip analysis of expressed mRNA of yeast genes after 2 h culture with a toxic chemical substance", "type": "cell-based, Saccharomyces cerevisiae S288C", "method": "Yeast (Saccharomyces cerevtisiae S288C (α SUC2mal mel gap2 CUP1)) were cultured at 25° C. on YPD medium (yeast extract 1%, polypepton 2%, glucose 2%). One of toxic chemical substances was added to the cell at logarithmic growth phase, and the cell was further cultured for two hours. Cell was cultured without any chemical substance in the same condition, and was used as control. Concentrations of the chemical substances were defined to inhibit the growth of the yeast but not lead to death.\nAfter the completion of cultivation, the culture was centrifuged to collect the cells. To the cells, sodium acetate buffer (50 mM sodium acetate, 10 mM EDTA, 1% SDS) was added, and the mixture was shaken at 65° C. for five minutes, followed by returning to room temperature, and obtaining the supernatant, which procedure was repeated two times. To the supernatant, ½ amount of a solution of phenol/chloroform was added, and the mixture was centrifuged to give a supernatant, which was added with an equal amount of chloroform, and the mixture was centrifuged to give a supernatant. To the supernatant, an equal amount of isopropanol containing 0.3 M sodium acetate was added, and the mixture was allowed to stand at room temperature for 30 minutes, after which the mixture was centrifuged to give a sediment of the whole RNAs. Seventy % ethanol was added to the sediment, and the mixture was again centrifuged to give a sediment, which was then dried and dissolved in water. mRNA was isolated from the whole RNAs as followings. In view of the fact that a poly A chain is attached to the 3′ terminus of mRNA, a polynucleotide having a poly T structure which was immobilized on the surface of latex beads was used to trap the mRNA, and then the mRNA was washed and eluted with spine column (Oligotex-dT30<Super>mRNA Purification Kit, Takara). Reverse transcription of the mRNA was conducted with a reverse transcriptase (Super Script II Reverse Transcriptase; catalogue No. 18064-014, GibcoBRL) using fluorescence-labeled nucleotides to give cDNAs that were introduced with Cy3-dUTP or Cy5-dUTP during the reverse transcription.\nThe labeled cDNAs were dissolved in TE buffer (10 mM Tris-HCl/1 mM EDTA, pH8.0), and the solution was dropped on the DNA chip containing the whole genes of yeast (DNA Chip Research Inc. Japan) so that the cDNAs were hybridized on the DNA chip at 65° C. for over 12 hours. The fluoresces intensity of the DNA chip was read with a scanner, and the ratio relative to the fluorescence intensity resulting from the absence of chemical substance was estimated as the following, which is shown in Tables 1 to 9: [formula]\nIn the Tables, “Intensity” indicated in the rightmost column is a value of the level of expressed mRNA of each gene in control cells as divided by the average level of the expressions of the whole genes.", "data": [{"smiles": "CCCCC[C@H](O)CC(=O)CCc1ccc(O)c(OC)c1", "note": "[(13), gingerol]", "values": [{"measurement": "The level of expressed mRNA in the presence of chemical substance/absence: YDR109C", "setting": "gene YDR109C", "value": 1.4}, {"measurement": "The level of expressed mRNA in the presence of chemical substance/absence: YDR128W", "setting": "gene YDR128W", "value": 1.1}, {"measurement": "The level of expressed mRNA in the presence of chemical substance/absence: YDR133C", "setting": "gene YDR133C", "value": 0.1}, {"measurement": "The level of expressed mRNA in the presence of chemical substance/absence: YDR140W", "setting": "gene YDR140W", "value": 2.0}, {"measurement": "The level of expressed mRNA in the presence of chemical substance/absence: YDR221W", "setting": "gene YDR221W", "value": 1.0}, {"measurement": "The level of expressed mRNA in the presence of chemical substance/absence: YDR250C", "setting": "gene YDR250C", "value": 1.2}, {"measurement": "The level of expressed mRNA in the presence of chemical substance/absence: YDR271C", "setting": "gene YDR271C", "value": 1.5}, {"measurement": "The level of expressed mRNA in the presence of chemical substance/absence: YDR278C", "setting": "gene YDR278C", "value": 0.7}, {"measurement": "The level of expressed mRNA in the presence of chemical substance/absence: YDR281C", "setting": "gene YDR281C", "value": 0.7}, {"measurement": "The level of expressed mRNA in the presence of chemical substance/absence: YDR316W", "setting": "gene YDR316W", "value": 0.6}, {"measurement": "The level of expressed mRNA in the presence of chemical substance/absence: YDR338C", "setting": "gene YDR338C", "value": 1.3}, {"measurement": "The level of expressed mRNA in the presence of chemical substance/absence: YDR366C", "setting": "gene YDR366C", "value": 0.8}, {"measurement": "level of expressed mRNA in the presence of chemical substance/in its absence", "setting": "gene YDR380W", "value": 0.4}, {"measurement": "level of expressed mRNA in the presence of chemical substance/in its absence", "setting": "gene YDR410C", "value": 1.2}, {"measurement": "The level of expressed mRNA in the presence of chemical substance/absence: YDR421W", "setting": "gene YDR421W", "value": 0.6}, {"measurement": "The level of expressed mRNA in the presence of chemical substance/absence: YDR425W", "setting": "gene YDR425W", "value": 1.4}, {"measurement": "The level of expressed mRNA in the presence of chemical substance/absence: YDR485C", "setting": "gene YDR485C", "value": 1.2}, {"measurement": "level of expressed mRNA in the presence of chemical substance/in its absence", "setting": "gene YDR487C", "value": 1.5}, {"measurement": "level of expressed mRNA in the presence of chemical substance/in its absence", "setting": "gene YDR502C", "value": 1.2}, {"measurement": "The level of expressed mRNA in the presence of chemical substance/absence: YDR504C", "setting": "gene YDR504C", "value": 2.2}, {"measurement": "level of expressed mRNA in the presence of chemical substance/in its absence", "setting": "gene YEL011W", "value": 1.5}, {"measurement": "level of expressed mRNA in the presence of chemical substance/in its absence", "setting": "gene YEL020C", "value": 1.2}, {"measurement": "The level of expressed mRNA in the presence of chemical substance/absence: YEL044W", "setting": "gene YEL044W", "value": 1.3}, {"measurement": "level of expressed mRNA in the presence of chemical substance/in its absence", "setting": "gene YER026C", "value": 1.9}, {"measurement": "level of expressed mRNA in the presence of chemical substance/in its absence", "setting": "gene YER069W", "value": 1.4}, {"measurement": "The level of expressed mRNA in the presence of chemical substance/absence: YER092W", "setting": "gene YER092W", "value": 1.2}, {"measurement": "The level of expressed mRNA in the presence of chemical substance/absence: YER182W", "setting": "gene YER182W", "value": 0.9}, {"measurement": "The level of expressed mRNA in the presence of chemical substance/absence: YFL042C", "setting": "gene YFL042C", "value": 1.7}, {"measurement": "level of expressed mRNA in the presence of chemical substance/in its absence", "setting": "gene YFR015C", "value": 2.5}, {"measurement": "The level of expressed mRNA in the presence of chemical substance/absence: YFR026C", "setting": "gene YFR026C", "value": 1.1}, {"measurement": "The level of expressed mRNA in the presence of chemical substance/absence: YFR056C", "setting": "gene YFR056C", "value": 0.3}, {"measurement": "level of expressed mRNA in the presence of chemical substance/in its absence", "setting": "gene YGL001C", "value": 1.0}, {"measurement": "level of expressed mRNA in the presence of chemical substance/in its absence", "setting": "gene YGL022W", "value": 1.0}, {"measurement": "level of expressed mRNA in the presence of chemical substance/in its absence", "setting": "gene YGL039W", "value": 1.5}, {"measurement": "The level of expressed mRNA in the presence of chemical substance/absence: YGL041C", "setting": "gene YGL041C", "value": 1.0}, {"measurement": "The level of expressed mRNA in the presence of chemical substance/absence: YGL045W", "setting": "gene YGL045W", "value": 1.3}, {"measurement": "The level of expressed mRNA in the presence of chemical substance/absence: YGL057C", "setting": "gene YGL057C", "value": 1.3}, {"measurement": "The level of expressed mRNA in the presence of chemical substance/absence: YGL088W", "setting": "gene YGL088W", "value": 0.7}, {"measurement": "level of expressed mRNA in the presence of chemical substance/in its absence", "setting": "gene YGL104C", "value": 2.0}, {"measurement": "level of expressed mRNA in the presence of chemical substance/in its absence", "setting": "gene YGL134W", "value": 0.7}, {"measurement": "level of expressed mRNA in the presence of chemical substance/in its absence", "setting": "gene YGL154C", "value": 2.0}, {"measurement": "The level of expressed mRNA in the presence of chemical substance/absence: YGL183C", "setting": "gene YGL183C", "value": 1.5}, {"measurement": "level of expressed mRNA in the presence of chemical substance/in its absence", "setting": "gene YGL209W", "value": 1.9}, {"measurement": "The level of expressed mRNA in the presence of chemical substance/absence: YGL223C", "setting": "gene YGL223C", "value": 1.7}, {"measurement": "level of expressed mRNA in the presence of chemical substance/in its absence", "setting": "gene YGL253W", "value": 1.5}, {"measurement": "The level of expressed mRNA in the presence of chemical substance/absence: YGR038W", "setting": "gene YGR038W", "value": 1.2}, {"measurement": "level of expressed mRNA in the presence of chemical substance/in its absence", "setting": "gene YGR060W", "value": 0.6}, {"measurement": "The level of expressed mRNA in the presence of chemical substance/absence: YGR139W", "setting": "gene YGR139W", "value": 0.4}, {"measurement": "The level of expressed mRNA in the presence of chemical substance/absence: YGR156W", "setting": "gene YGR156W", "value": 1.8}, {"measurement": "The level of expressed mRNA in the presence of chemical substance/absence: YGR198W", "setting": "gene YGR198W", "value": 1.3}, {"measurement": "The level of expressed mRNA in the presence of chemical substance/absence: YGR210C", "setting": "gene YGR210C", "value": 1.0}, {"measurement": "The level of expressed mRNA in the presence of chemical substance/absence: YGR211W", "setting": "gene YGR211W", "value": 0.8}, {"measurement": "The level of expressed mRNA in the presence of chemical substance/absence: YGR237C", "setting": "gene YGR237C", "value": 1.6}, {"measurement": "The level of expressed mRNA in the presence of chemical substance/absence: YGR243W", "setting": "gene YGR243W", "value": 1.1}, {"measurement": "The level of expressed mRNA in the presence of chemical substance/absence: YGR250C", "setting": "gene YGR250C", "value": 1.7}, {"measurement": "The level of expressed mRNA in the presence of chemical substance/absence: YGR266W", "setting": "gene YGR266W", "value": 1.1}, {"measurement": "The level of expressed mRNA in the presence of chemical substance/absence: YGR277C", "setting": "gene YGR277C", "value": 1.6}]}]}
